Measurements reported in ChEMBL document CHEMBL1157482, “Insight from molecular modeling into different conformation and SAR of natural steroids and unnatural 7-oxa-steroids” (Bioorg Med Chem Lett, 2008).
One block for each compound: values may come before it.

Key:
[1] = system: Rattus norvegicus; experiment: AUC (0 to infinity) in rat at 10 mg/kg, po; format: ADME, organism-based, Plasma; parameters: dose 10 mg/kg, route oral, time infinity; conditions: in vivo
[2] = system: Rattus norvegicus; experiment: AUC (last) in rat at 10 mg/kg, po; format: ADME, organism-based, Plasma; parameters: time 0 - last, dose 10 mg/kg, route oral; conditions: in vivo
[3] = Cmax in rat at 10 mg/kg, po; format: ADME, organism-based; parameters: dose 10 mg/kg, route oral; conditions: in vivo
[4] = Tmax in rat at 10 mg/kg, po; format: ADME, organism-based; parameters: dose 10 mg/kg, route oral; conditions: in vivo
[5] = Mean retention time in rat at 10 mg/kg, po; format: ADME, organism-based; parameters: dose 10 mg/kg, route oral; conditions: in vivo
[6] = Half life in rat at 10 mg/kg, po; format: ADME, organism-based; parameters: dose 10 mg/kg, route oral; conditions: in vivo
[7] = system: Rattus norvegicus; experiment: Antiprogestin activity against ovariectomized Sprague-Dawley rat assessed as effect on ethinyl estradiol-induced C3 expression at 10 mg/kg, po; format: functional
[8] = system: Rattus norvegicus; experiment: Antiprogestin activity against ovariectomized po dosed Sprague-Dawley rat assessed as effect on ethinyl estradiol-induced C3 expression; format: functional; conditions: read-out: ID50 (the source's name)
[9] = system: Rattus norvegicus; experiment: AUC (0 to infinity) in rat at 30 mg/kg, po; format: ADME, organism-based, Plasma; parameters: time infinity, dose 30 mg/kg, route oral; conditions: in vivo
[10] = Mean retention time in rat at 30 mg/kg, po; format: ADME, organism-based; parameters: dose 30 mg/kg, route oral; conditions: in vivo
[11] = Cmax in rat at 30 mg/kg, po; format: ADME, organism-based; parameters: dose 30 mg/kg, route oral; conditions: in vivo
[12] = Tmax in rat at 30 mg/kg, po; format: ADME, organism-based; parameters: dose 30 mg/kg, route oral; conditions: in vivo
[13] = system: Rattus norvegicus; experiment: AUC (last) in rat at 30 mg/kg, po; format: ADME, organism-based, Plasma; parameters: time 0 - last, dose 30 mg/kg, route oral; conditions: in vivo
[14] = Half life in rat at 30 mg/kg, po; format: ADME, organism-based; parameters: dose 30 mg/kg, route oral; conditions: in vivo

AUC [1]: 505 ng·h/mL
AUC [2]: 460 ng·h/mL
Cmax [3]: 48.7 ng/mL
Tmax [4]: 3 h
MRT [5]: 9.4 h
half-life [6]: 6.88 h
SMILES: CN(C)c1ccc([C@H]2C[C@@]3(C)[C@@H](CC[C@@]3(O)C#Cc3ccc(F)cc3)[C@@H]3OCC4=CC(=O)CCC4=C32)cc1

SMILES: CN(C)c1ccc([C@H]2C[C@@]3(C)[C@@H](CC[C@@]3(O)C#Cc3ccccc3)[C@@H]3OCC4=CC(=O)CCC4=C32)cc1
Efficacy [7]: 100%
ED50 [8]: 2.5 mg/kg

AUC [9]: 3570 ng·h/mL
MRT [10]: 8 h
Cmax [11]: 53.8 ng/mL
Tmax [12]: 12.5 h
AUC [13]: 446 ng·h/mL
half-life [14]: 5.56 h
SMILES: CC#C[C@]1(O)CC[C@H]2[C@@H]3CCC4=CC(=O)CCC4=C3[C@@H](c3ccc(N(C)C)cc3)C[C@@]21C [MIFEPRISTONE]
Efficacy [7]: 130%
ED50 [8]: 2.1 mg/kg

SMILES: CC#C[C@]1(O)CC[C@H]2[C@@H]3OCC4=CC(=O)CCC4=C3[C@@H](c3ccc(N(C)C)cc3)C[C@@]21C
Efficacy [7]: 110%
ED50 [8]: 2.4 mg/kg
